Where two headings read alike, the source gives them in different places.
Legend:
[1] = system: Alternaria alternate; assay: in vitro-Test with fungal microorganisms, Method A (tables A1-A12); format: cell-based, Alternaria alternata; conditions: Alternaria, applied alone, read-out: Efficacy %
Summary of the method: (§1)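 Compound was dried into wells and overlaid with liquid potato dextrose medium containing spores or mycelium of the fungus. Plates were held at 20° C and 85% RH, and growth was read as extinction at 620 nm after 3–5 days. Efficacy is relative to the untreated control (0% = control growth, 100% = no growth).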

[2] = system: Alternaria alternata; assay: in vitro-Test with fungal microorganisms, Method B (tables A13-A22); format: cell-based; conditions: Alternaria alternata, single compound, 0.2 ppm; read-out: Efficacy
Summary of the method: (§2)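 Steps: solvent evaporation leaves the compound coating the wells; fungus-inoculated liquid growth medium goes on top; absorbance at 600 nm is measured; incubation runs 3 to 7 days at 20° C. with 85% relative humidity. Inhibition is then read photometrically and expressed as efficacy against untreated control.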

[3] = system: Botrytis cinerea; assay: in vitro-Test with fungal microorganisms, Method A (tables B1-B14); format: cell-based; conditions: Botrytis cinerea
Summary of the method: as §1

[4] = system: Cercospora beticola; assay: in vitro-Test with fungal microorganisms, Method A (tables C1-C10); format: cell-based; conditions: Cercospora beticola, read-out: Efficacy %
Summary of the method: as §1

[5] = system: Cercospora beticola; assay: in vitro-Test with fungal microorganisms, Method B (tables C11-C20); format: cell-based; conditions: Cercospora beticola, single compound, read-out: Efficacy %
Summary of the method: as §2

[6] = system: Colletotrichum lindemuthianum; assay: in vitro-Test with fungal microorganisms, Method A (tables D1-D8); format: cell-based; conditions: Colletotrichum lindemuthianum, read-out: Efficacy %
Summary of the method: as §1

[7] = system: Cordana musae; assay: in vitro-Test with fungal microorganisms, Method A (tables E1-E8); format: cell-based
Summary of the method: as §1

[8] = system: Cordana musae; assay: in vitro-Test with fungal microorganisms, Method B (tables E9-E16); format: cell-based; conditions: Neocordana musae, single active, read-out: Efficacy
Summary of the method: as §2

[9] = system: Diaporthe citri; assay: in vitro-Test with fungal microorganisms, Method A (tables F1-F11); format: cell-based; conditions: Diaporthe citri, read-out: Efficacy
Summary of the method: as §1

[10] = system: Fusarium culmorum; assay: in vitro-Test with fungal microorganisms, Method A (tables G1-G4); format: cell-based; conditions: Fusarium culmorum, alone, read-out: Efficacy
Method: (§3) Example: In Vitro-Test with Fungal Microorganisms
(§4) Wells of 96-well microtiter plates are filled with 10 μl of a preparation of test compound or compound combination in methanol+emulsifier alkylaryl-polyglycol-ether. Thereafter, the solvent is evaporated in a hood. At the next step, 100 μl of liquid potato dextrose medium is given into each well, that has been amended with an appropriate concentration of spores or mycelium suspension of the test fungus.
With the aid of a photometer, the extinction in all wells is measured at the wavelength of 620 nm.
The microtiter plates are incubated at 20° C. and 85% relative humidity. The inhibition of growth is determined again photometrically 3-5 days after the application. Efficacy is calculated in relation to the untreated control, 0% efficacy means fungal growth as high as in untreated control while 100% efficacy means no fungal growth is measured.
(§5) The data in tables A1 to A12, B1 to B14, C1 to C10, D1 to D8, E1 to E8, F1 to F11, G1 to G4, H1 to H4 and I1 to I5 were collected according to Method A. The data in tables A13 to A22, B15 to B18, C11 to C20, E9 to E16, F12 to F15, G5 to G15, H5 to H8, I6 to I11 and J1 to J11 were collected according to Method B.

[11] = system: Fusarium culmorum; assay: in vitro-Test with fungal microorganisms, Method B (tables G5-G15); format: cell-based; conditions: Fusarium culmorum, read-out: Efficacy
Summary of the method: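 Compound in methanol plus alkylaryl-polyglycol-ether emulsifier dried in wells, then liquid medium containing Fusarium culmorum spores or mycelium added. Incubated 3-7 days at 20° C, 85% relative humidity; growth read at 600 nm. Efficacy relative to untreated control (0% equals control growth, 100% none).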

[12] = system: Parastagonospora nodorum; assay: in vitro-Test with fungal microorganisms, Method B (tables H5-H8); format: cell-based; conditions: Parastagonospora nodorum, read-out: Efficacy
Method: as §3
as §4, with “30” for “10”, “200” for “100”, “growth” for “potato dextrose”, “given,” for “given into each well,”
With the aid of a photometer, the extinction in all wells is measured at the wavelength of 600 nm.
The microtiter plates are incubated for 3 to 7 days at 20° C. and 85% relative humidity. After the incubation inhibition of growth is determined photometrically. Efficacy is calculated in relation to the untreated control, 0% efficacy means fungal growth as high as in untreated control while 100% efficacy means no fungal growth is measured.
as §5

[13] = system: Ustilago segetum var. avenae; assay: in vitro-Test with fungal microorganisms, Method A (tables I1-I5); format: cell-based; conditions: alone, 0.8 ppm; read-out: Efficacy %
Summary of the method: as §1

[14] = system: Ustilago segetum var. avenae; assay: in vitro-Test with fungal microorganisms, Method B (tables I6-I11); format: cell-based; conditions: 1 ppm; read-out: Efficacy %
Summary of the method: as §2

[15] = system: Colletotrichum coccodes; assay: in vitro-Test with fungal microorganisms, Method B (tables J1-J11); format: cell-based; conditions: Colletotrichum coccodes, read-out: Efficacy %; for inhibition of growth at 1 ppm: single active compound at 1 ppm
Summary of the method: as §2

[16] = single active compound at 0.04 ppm

`O=C1C2CC=CCC2C(=O)N1SC(Cl)(Cl)Cl` (centres unmarked) [(5.003) captan, captan] gave an inhibition of growth at 20 ppm ([1]; 20 ppm) of 56%, an inhibition of growth at 0.2 ppm [2] of 0% and an inhibition of growth at 0.8 ppm ([3]; read-out: Efficacy) of 0%. The inhibition of growth at 4 ppm ([3]; 4.0 ppm, read-out: Efficacy) was 0%, the inhibition of growth at 20 ppm ([3]; read-out: Efficacy) was 7% and the inhibition of growth at 0.8 ppm ([3]; alone, read-out: Efficacy %) was 0%. It also gave an inhibition of growth at 20 ppm ([3]; alone, read-out: Efficacy %) of 100%, an inhibition of growth at 0.8 ppm ([4]; 0.8 ppm alone) of 0% and an inhibition of growth at 0.8 ppm ([4]; 0.8 ppm) of 0%. The inhibition of growth at 4 ppm ([4]; 4.0 ppm) was 100%, the inhibition of growth at 20 ppm ([4]; 20.0 ppm) was 100% and the inhibition of growth at 0.04 ppm [5] was 0%. It also gave an inhibition of growth at 0.4 ppm ([5]; 0.4 ppm) of 0%, an inhibition of growth at 5 ppm ([5]; 5 ppm) of 100% and an inhibition of growth at 0.8 ppm ([6]; mixing partner alone, 0.8 ppm) of 3%. For the same molecule, the inhibition of growth at 4 ppm ([6]; mixing partner alone, 4.0 ppm) was 100%, the inhibition of growth at 20 ppm ([6]; mixing partner alone, 20.0 ppm) was 100% and the inhibition of growth at 0.8 ppm ([6]; single active at 0.8 ppm) was 0%. For the same molecule, the inhibition of growth at 4 ppm ([6]; single active at 4.0 ppm) was 100%, the inhibition of growth at 20 ppm ([6]; single active at 20.0 ppm) was 100% and the inhibition of growth at 4 ppm ([7]; Neocordana musae, mixing partner alone, read-out: Efficacy %) was 0%. The inhibition of growth at 4 ppm ([7]; Neocordana musae, single substance, read-out: Efficacy %) was 100%, the inhibition of growth at 20 ppm ([7]; Neocordana musae, single substance, 20.0 ppm, read-out: Efficacy %) was 100% and the inhibition of growth at 0.04 ppm [8] was 0%. For the same molecule, the inhibition of growth at 1 ppm [8] was 0%, the inhibition of growth at 5 ppm ([8]; 5 ppm) was 100% and the inhibition of growth at 0.8 ppm ([9]; Table F10, 0.8 ppm alone) was 18%. It also gave an inhibition of growth at 4 ppm ([9]; Table F10, 4.0 ppm alone) of 100%, an inhibition of growth at 20 ppm ([9]; Table F10, 20.0 ppm alone) of 100% and an inhibition of growth at 0.8 ppm ([9]; applied alone, 0.8 ppm) of 9%. For the same molecule, the inhibition of growth at 4 ppm ([9]; applied alone, 4.0 ppm) was 99%, the inhibition of growth at 0.8 ppm ([9]; single active, 0.8 ppm) was 24% and the inhibition of growth at 4 ppm ([9]; single active, 4.0 ppm) was 88%. It also gave an inhibition of growth at 0.8 ppm ([10]; 0.8 ppm) of 0%, an inhibition of growth at 4 ppm ([10]; 4.0 ppm) of 100% and an inhibition of growth at 20 ppm ([10]; 20.0 ppm) of 100%. For the same molecule, the inhibition of growth at 0.04 ppm ([11]; single active compound, 0.04 ppm) was 0%, the inhibition of growth at 0.2 ppm ([11]; single active compound, 0.2 ppm) was 16% and the inhibition of growth at 1 ppm ([11]; single active compound) was 18%. It also gave an inhibition of growth at 5 ppm ([11]; single active compound, 5 ppm) of 100%, an inhibition of growth at 0.04 ppm [12] of 0% and an inhibition of growth at 0.8 ppm [13] of 0%. The inhibition of growth at 1 ppm [14] was 28%, the inhibition of growth at 0.2 ppm ([15]; 0.2 ppm) was 0% and the inhibition of growth at 0.04 ppm [15, 16] was 53%. It also gave an inhibition of growth at 0.2 ppm ([15]; single active compound at 0.2 ppm) of 0%, an inhibition of growth at 1 ppm [15] of 0% and an inhibition of growth at 5 ppm ([15]; single active compound at 5 ppm) of 100%.

`CC(C)(C)C(O)(CCc1ccc(Cl)cc1)Cn1cncn1` (centres unmarked) [(1.021) tebuconazole, tebuconazole] was tested, and the inhibition of growth at 0.008 ppm ([1]; 0.008 ppm) was 13%, the inhibition of growth at 0.04 ppm ([1]; 0.04 ppm) was 19% and the inhibition of growth at 0.2 ppm ([1]; 0.2 ppm) was 26%. For the same molecule, the inhibition of growth at 0.04 ppm ([3]; read-out: Efficacy) was 0%, the inhibition of growth at 0.2 ppm ([3]; read-out: Efficacy) was 37% and the inhibition of growth at 1 ppm ([3]; 1.0 ppm, read-out: Efficacy) was 94%. For the same molecule, the inhibition of growth at 0.008 ppm ([3]; alone, 0.008 ppm, read-out: Efficacy %) was 0%, the inhibition of growth at 0.04 ppm ([3]; alone, read-out: Efficacy %) was 0% and the inhibition of growth at 0.2 ppm ([3]; alone, read-out: Efficacy %) was 45%. For the same molecule, the inhibition of growth at 0.008 ppm ([4]; 0.008 ppm alone) was 12%, the inhibition of growth at 0.04 ppm ([4]; 0.04 ppm alone) was 32% and the inhibition of growth at 0.2 ppm ([4]; 0.2 ppm alone) was 100%. The inhibition of growth at 0.008 ppm ([5]; 0.008 ppm) was 4%, the inhibition of growth at 0.04 ppm [5] was 1% and the inhibition of growth at 0.2 ppm ([5]; 0.2 ppm) was 62%. For the same molecule, the inhibition of growth at 0.008 ppm ([6]; mixing partner alone, 0.008 ppm) was 32%, the inhibition of growth at 0.04 ppm ([6]; mixing partner alone, 0.04 ppm) was 0% and the inhibition of growth at 0.2 ppm ([6]; mixing partner alone, 0.2 ppm) was 17%. For the same molecule, the inhibition of growth at 1 ppm ([6]; mixing partner alone, 1.0 ppm) was 35%, the inhibition of growth at 0.008 ppm ([6]; single active at 0.008 ppm) was 0% and the inhibition of growth at 0.04 ppm ([6]; single active at 0.04 ppm) was 13%. The inhibition of growth at 0.2 ppm ([6]; single active at 0.2 ppm) was 0%, the inhibition of growth at 1 ppm ([6]; single active at 1.0 ppm) was 4% and the inhibition of growth at 0.04 ppm ([7]; Neocordana musae, mixing partner alone, 0.04 ppm, read-out: Efficacy %) was 0%. For the same molecule, the inhibition of growth at 0.2 ppm ([7]; Neocordana musae, mixing partner alone, 0.2 ppm, read-out: Efficacy %) was 29%, the Efficacy % ([7]; mixing partner alone, 1.0 ppm) was 99% and the inhibition of growth at 0.04 ppm [8] was 2%. For the same molecule, the inhibition of growth at 0.2 ppm ([8]; 0.2 ppm) was 25%, the inhibition of growth at 1 ppm [8] was 71% and the inhibition of growth at 0.008 ppm ([9]; applied alone, 0.008 ppm) was 28%. For the same molecule, the inhibition of growth at 0.2 ppm ([9]; applied alone, 0.2 ppm) was 89%, the inhibition of growth at 0.008 ppm ([10]; 0.008 ppm) was 8% and the inhibition of growth at 0.04 ppm ([10]; 0.04 ppm) was 21%. It also gave an inhibition of growth at 1 ppm ([10]; 1.0 ppm) of 98%, an inhibition of growth at 1 ppm ([11]; alone) of 79% and an inhibition of growth at 0.008 ppm ([12]; 0.008 ppm) of 0%. It also gave an inhibition of growth at 0.04 ppm [12] of 0%, an inhibition of growth at 0.2 ppm ([12]; 0.2 ppm) of 60% and an inhibition of growth at 1 ppm ([12]; 1 ppm) of 100%. For the same molecule, the inhibition of growth at 0.04 ppm ([15]; 0.04 ppm) was 0%, the inhibition of growth at 0.2 ppm ([15]; 0.2 ppm) was 4% and the inhibition of growth at 0.008 ppm ([15]; applied alone, 0.008 ppm) was 0%. For the same molecule, the inhibition of growth at 0.04 ppm ([15]; applied alone, 0.04 ppm) was 0%, the inhibition of growth at 0.2 ppm ([15]; applied alone, 0.2 ppm) was 0% and the inhibition of growth at 0.008 ppm ([15]; single active compound at 0.008 ppm) was 0%. For the same molecule, the inhibition of growth at 0.04 ppm [15, 16] was 7% and the inhibition of growth at 1 ppm [15] was 87%.

Reference: US12653191B2, “Active compound combinations” (Bayer Aktiengesellschaft, priority 2020, dated 2026)
